Where a name gives a salt, the structure may show the parent alone.
Key:
Experiment in all cases: MIC, standard broth dilution method in microtitre
Assay type in all cases: cell-based
E. faecalis ATCC 29212 = conditions: Enterococcus faecalis, ATCC29212
Experimental: (§1) Using a standard broth dilution method in microtitre, compounds were tested for antibacterial activity. The compounds in the above examples gave minimum inhibitory concentrations (MICs) less than 1 microgram per millilitre against erythromycin-sensitive and erythromycin-resistant strains of Streptococcus pneumoniae and Streptococcus pyogenes.
(§2) In addition, the MIC (μg/mL) of test compounds against various organisms was determined including:
(§3) S. aureus Smith ATCC 13709, S. pneumoniae SP030, S. pyogenes 3565, E. faecalis ATCC 29212, H. influenzae ATCC 49247, M. catarrhalis ATCC 23246.

S. pyogenes 3565 = conditions: Streptococcus pyogenes
Experimental: as §1, §2, §3

S. pneumoniae SP030 = conditions: Streptococcus pneumoniae
Experimental: as §1, §2, §3

[1] = test system: M. catarrhalis ATCC 23246; conditions: Moraxella catarrhalis, ATCC23246
Experimental: as §1, §2, §3

H. influenzae ATCC 49247 = conditions: Haemophilus influenzae, ATCC49247; H. influenzae ATCC 49247; broth dilution in microtitre; read-out: MIC
Experimental: as §1, §2, §3

[2] = test system: S. aureus Smith ATCC 13709; conditions: Staphylococcus aureus, ATCC13709
Experimental: as §1, §2, §3

[3] = test system: erythromycin resistant strains of Streptococcus pyogenes
Experimental: as §1

[4] = test system: erythromycin resistant strains of Streptococcus pneumoniae
Experimental: as §1

With `CC[C@@H]1OC(=O)[C@H](C)[C@H](O[C@@H]2C[C@](C)(OC)[C@H](OC(=O)CCNCCSc3ccc4c(c3)c(=O)c(C(=O)O)cn4CC)[C@H](C)O2)[C@@H](C)[C@H](O[C@@H]2O[C@H](C)C[C@H](N(C)C)[C@@H]2O)[C@](C)(O)C[C@H](C)CN(C)[C@@H](C)[C@@H]2OC(=O)O[C@@]12C` [Example 11, 4″-O-{3-[2-(3-Carboxy-1-ethyl-4-oxo-1,4-dihydro-6-quinolinysulfanyl)ethylamino]propionyl}-azithromycin11,12-carbonate] the MIC (E. faecalis ATCC 29212) was no more than 1 µg/mL, the MIC (S. pyogenes 3565) was no more than 1 µg/mL and the MIC (S. pneumoniae SP030) was no more than 1 µg/mL. The MIC [1] was no more than 2 µg/mL, the MIC (H. influenzae ATCC 49247) was no more than 2 µg/mL and the MIC [2] was no more than 1 µg/mL. For the same molecule, the MIC [3] was no more than 0.25 µg/mL and the MIC [4] was no more than 0.25 µg/mL.

Molecule `CC[C@@H]1OC(=O)[C@H](C)[C@H](O[C@@H]2C[C@](C)(OC)[C@H](OC(=O)CCNCCSc3cnc4c(c3)c(=O)c(C(=O)O)cn4CC)[C@H](C)O2)[C@@H](C)[C@H](O[C@@H]2O[C@H](C)C[C@H](N(C)C)[C@@H]2O)[C@@](C)(OC)C[C@H](C)C(=O)[C@H](C)[C@@H](O)[C@]1(C)O` [Example 5, 4″-O-{3-[2-(3-Carboxy-1-ethyl-4-oxo-1,4-dihydro-[1,8]naphthyridin-6-ylsulfanyl)ethylamino]propionyl}-6-O-methyl-erythromycin A monoformate salt] has an MIC (E. faecalis ATCC 29212) of no more than 1 µg/mL, an MIC (S. pyogenes 3565) of no more than 1 µg/mL and an MIC (S. pneumoniae SP030) of no more than 1 µg/mL. It also gave an MIC [2] of no more than 1 µg/mL, an MIC [3] of no more than 0.25 µg/mL and an MIC [4] of no more than 0.25 µg/mL.

`CC[C@@H]1OC(=O)[C@H](C)[C@H](O[C@@H]2C[C@](C)(O)[C@H](OC(=O)CCNCCSc3ccc4c(c3)c(=O)c(C(=O)OC)cn4CC)[C@H](C)O2)[C@@H](C)[C@H](O[C@@H]2O[C@H](C)C[C@H](N(C)C)[C@@H]2O)[C@](C)(OC)C[C@H](C)C(=O)[C@H](C)[C@@H](O)[C@]1(C)O` [Example 7, 4″-O-{3-[2-(3-Carboxyl-1-ethyl-4-oxo-1,4-dihydro-6-quinolinylsulfanyl)ethylamino]propionyl}-6-O-methyl-erythromycin A methyl ester] showed an MIC (E. faecalis ATCC 29212) of no more than 1 µg/mL, an MIC (S. pyogenes 3565) of no more than 1 µg/mL and an MIC (S. pneumoniae SP030) of no more than 1 µg/mL. For the same molecule, the MIC [2] was no more than 1 µg/mL, the MIC [3] was no more than 0.25 µg/mL and the MIC [4] was no more than 0.25 µg/mL.

`CC[C@H]1OC(=O)[C@H](C)[C@@H](O[C@H]2C[C@@](C)(OC)[C@@H](OC(=O)CCOCCOc3cc4c(=O)c(C(=O)OCOC(=O)C(C)(C)C)cn(C5CC5)c4cc3Cl)[C@H](C)O2)[C@H](C)[C@@H](O[C@@H]2O[C@H](C)C[C@H](N(C)C)[C@H]2O)[C@](C)(O)C[C@@H](C)CN(C)[C@H](C)[C@@H](O)[C@]1(C)O` [Example 28, 4″-O-(3-{2-[7-chloro-1-cyclopropyl-3-(2,2-dimethyl-propionyloxymethoxycarbonyl)-4-oxo-1,4-dihydro-quinolin-6-yloxy]-ethoxy}-propionyl)-azithromycin] showed an MIC (E. faecalis ATCC 29212) of no more than 1 µg/mL, an MIC (S. pyogenes 3565) of no more than 1 µg/mL and an MIC (S. pneumoniae SP030) of no more than 1 µg/mL. The MIC [2] was no more than 1 µg/mL, the MIC [3] was no more than 0.25 µg/mL and the MIC [4] was no more than 0.25 µg/mL.

Work on `CC[C@@H]1OC(=O)[C@H](C)[C@H](O[C@@H]2C[C@](C)(OC)[C@H](OC(=O)CCNCCOc3ccc4c(c3)c(=O)c(C(=O)O)cn4CC)[C@H](C)O2)[C@@H](C)[C@H](O[C@@H]2O[C@H](C)C[C@H](N(C)C)[C@@H]2O)[C@](C)(OC)C[C@H](C)C(=O)[C@H](C)[C@@H](O)[C@]1(C)O` [Example 15, 4″-O-{3-[2-(3-Carboxy-1-ethyl-4-oxo-1,4-dihydro-6-quinolinyloxy)ethylamino]propionyl}-6-O-methyl-erythromycin A monoformate salt] yielded an MIC [3] of no more than 0.25 µg/mL and an MIC [4] of no more than 0.25 µg/mL.
